From patent US10947229B2, “Dimethyl amino azetidine amides as JAK inhibitors” (THERAVANCE BIOPHARMA R&D IP, LLC, priority 2018, dated 2021)

Test system: IL-27 induced CXCL10 secretion
Assay: Inhibition of IL-27 induced CXCL10 in human 3D airway cultures
Type: cell-based
Settings: 192 h, 8 days, 4 donors
Experimental: EpiAirway tissue cultures were obtained from Mattek (AIR-100). Cultures were derived from asthmatic donors. In a cell culture insert, human derived tracheal/bronchial epithelial cells were grown and differentiated on a porous membrane support, allowing an air-liquid interface with warmed culture medium below the cells and a gaseous test atmosphere above. Tissues were cultured in maintenance media ([…]) in a 37° C., 5% CO2 humidified incubator. Four donors were tested. On Day 0, tissue cultures were treated with test compounds in liquid interface at 10 μM, 1 μM and/or 0.1 μM. Compounds were diluted in dimethyl sulfoxide (DMSO, Sigma) to a final concentration of 0.1%. DMSO at 0.1% was used as a vehicle control. […] Tissue cultures were maintained for 8 days. Media was replaced every 2 days with fresh media containing compounds and IFNγ or IL-27. On Day 8, tissue cultures and supernatants were collected for analysis. Supernatant samples were assayed for CXCL10 (IP-10) and CXCL9 (MIG) using luminex analysis (EMD Millipore). Data is expressed as % Inhibition+/-standard deviation (±STDV). Percent inhibition was determined by compound inhibitory potency against IFNγ or IL-27 induced CXCL10 or CXCL9 secretion compared to vehicle treated cells. Data is the average from 4 donors.

SMILES: CCc1cc(O)ccc1-c1ccc2c(-c3nc4c([nH]3)CN(C(C)C)[C@H](C(=O)N3CC(N(C)C)C3)C4)n[nH]c2c1 [Compound 1, (S)-(3-(dimethylamino)azetidin-1-yl)(2-(6-(2-ethyl-4-hydroxyphenyl)-1H-indazol-3-yl)-5-isopropyl-4,5,6,7-tetrahydro-3H-imidazo[4,5-c]pyridin-6-yl)methanone]
- inhibition at 0.1 µM (0.1 μM): 25%
- inhibition at 1 µM (1 μM): 98%
- inhibition at 10 µM (10 μM): 100%
